# In patent US8426429B2, “2-amino-quinazoline derivatives useful as inhibitors of β-secretase (BACE)” (Jansssen Pharmaceutica N.V., priority 2004, dated 2013):
# Where “and” joins values, the source holds several entries; their conditions need not be identical. Identical values can stand only once.
# Target: T1, β-secretase (BACE) (Homo sapiens, UniProt P56817)
# T1 construct: purchased Panvera
# Test: BACE FS1 % Inhibition Assay
# Format: biochemical
# In short: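 Percent inhibition per compound concentration was referenced to vehicle-treated enzyme and no-enzyme wells. Enzyme at a 4 μg/mL working stock plus compound was mixed for 20 min at room temperature before the FS1 substrate (300 μg/mL working stock) was added for a 1 h room-temperature reaction.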
# T1 sequence (P56817 46-501): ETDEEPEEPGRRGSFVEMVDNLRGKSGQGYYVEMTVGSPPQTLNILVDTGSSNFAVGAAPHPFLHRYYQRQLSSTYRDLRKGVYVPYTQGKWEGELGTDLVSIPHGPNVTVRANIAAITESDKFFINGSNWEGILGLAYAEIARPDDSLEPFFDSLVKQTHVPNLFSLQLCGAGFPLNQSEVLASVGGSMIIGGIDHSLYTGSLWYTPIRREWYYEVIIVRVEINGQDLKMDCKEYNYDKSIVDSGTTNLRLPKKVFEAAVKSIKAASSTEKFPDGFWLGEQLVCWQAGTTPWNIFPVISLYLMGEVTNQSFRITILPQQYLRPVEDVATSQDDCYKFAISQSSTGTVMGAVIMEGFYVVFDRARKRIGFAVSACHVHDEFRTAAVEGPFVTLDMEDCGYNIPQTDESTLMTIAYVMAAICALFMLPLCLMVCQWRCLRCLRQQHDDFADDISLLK
% Inhibition (FS) (0.3 μM test compound),% Inhibition (FS) (1 μM test compound),% Inhibition (FS) (3 μM test compound),"% Inhibition (FS) (3 μM test compound, 3 µM)",SMILES
<30%,35%,72%,,CCOc1cccc(Nc2ccc3c(c2)CN(Cc2cccc(C(=O)N(C)C4CCCCC4)c2)C(N)=N3)c1 [Compound 440]
<30%,29%,48%,,CN(C(=O)c1cccc(CN2Cc3cc(Nc4ccc5c(c4)OCO5)ccc3N=C2N)c1)C1CCCCC1 [Compound 441]
<30%,58%,101%,,CSc1ccc(Nc2ccc3c(c2)CN(Cc2cccc(C(=O)N(C)C4CCCCC4)c2)C(N)=N3)cc1 [Compound 442]
<30%,39%,67%,,NC1=Nc2ccc(Oc3ccccc3)cc2CN1Cc1cccc(C(=O)N2CCCCC2)c1 [Compound 443]
<30%,<30%,30%,,CC(C)[C@@H](CCC(=O)N(C)C1CCCCC1)N1Cc2cc(Oc3ccccc3)ccc2N=C1N [Compound 444]
<30%,<30%,<30%,,NC1=Nc2ccc(Oc3ccccc3)cc2CN1Cc1cccc(C(=O)NC2CCCCC2)c1 [Compound 451]
<30%,42%,78%,,NC1=Nc2ccc(Oc3ccccc3)cc2CN1C(CCCC(=O)N1CCCCC1)CCC(=O)N1CCCCC1 (stereo not drawn) [Compound 452]
<30%,<30%,<30%,,CN(C(=O)c1ccccc1CN1Cc2cc(Oc3ccccc3)ccc2N=C1N)C1CCCCC1 [Compound 463]
<30%,<30%,<30%,,COc1cccc(OC)c1Oc1ccc2c(c1)CN(CCC(=O)NC1C3CC4CC(C3)CC1C4)C(N)=N2 (stereo not drawn) [Compound 465]
<30%,<30%,53%,,CC(C)c1ccccc1Oc1ccc2c(c1)CN(CCC(=O)NC1C3CC4CC(C3)CC1C4)C(N)=N2 (stereo not drawn) [Compound 466]
<30%,<30%,<30%,,COc1ccc(C)cc1Oc1ccc2c(c1)CN(Cc1cccc(C(=O)N(C)C3CCCCC3)c1)C(N)=N2 [Compound 467]
<30%,<30%,<30%,,COc1cccc(C)c1Oc1ccc2c(c1)CN(Cc1cccc(C(=O)N(C)C3CCCCC3)c1)C(N)=N2 [Compound 468]
<30%,<30%,<30%,,COc1ccc(-c2nc3ccccc3s2)c(Oc2ccc3c(c2)CN(Cc2cccc(C(=O)N(C)C4CCCCC4)c2)C(N)=N3)c1 [Compound 469]
<30%,<30%,31%,,CN(C(=O)c1cccc(CN2Cc3cc(Oc4ccccc4-c4nc5ccccc5s4)ccc3N=C2N)c1)C1CCCCC1 [Compound 470]
<30%,<30%,38%,,CN(C(=O)c1cccc(CN2Cc3cc(Oc4ccccc4-n4cccc4)ccc3N=C2N)c1)C1CCCCC1 [Compound 471]
<30%,<30%,<30%,,CN(C(=O)c1cccc(CN2Cc3cc(Oc4ccccc4S(C)(=O)=O)ccc3N=C2N)c1)C1CCCCC1 [Compound 472]
<30%,<30%,<30%,,CN(C(=O)c1cccc(CN2Cc3cc(Oc4cccc(-c5ccc6ccccc6n5)c4)ccc3N=C2N)c1)C1CCCCC1 [Compound 473]
<30%,<30%,<30%,,CSc1ccccc1Oc1ccc2c(c1)CN(Cc1cccc(C(=O)N(C)C3CCCCC3)c1)C(N)=N2 [Compound 474]
<30%,<30%,<30%,,Cc1cccc(C)c1Oc1ccc2c(c1)CN(Cc1cccc(C(=O)N(C)C3CCCCC3)c1)C(N)=N2 [Compound 475]
<30%,<30%,<30%,,COc1cccc(OC)c1Oc1ccc2c(c1)CN(Cc1cccc(C(=O)N(C)C3CCCCC3)c1)C(N)=N2 [Compound 477]
<30%,<30%,46%,,CC(C)Oc1ccccc1Oc1ccc2c(c1)CN(Cc1cccc(C(=O)N(C)C3CCCCC3)c1)C(N)=N2 [Compound 478]
<30%,<30%,81%,,CN(C)c1cccc(Oc2ccc3c(c2)CN(Cc2cccc(C(=O)N(C)C4CCCCC4)c2)C(N)=N3)c1 [Compound 479]
<30%,<30%,38%,,C=CCc1cccc(C)c1Oc1ccc2c(c1)CN(Cc1cccc(C(=O)N(C)C3CCCCC3)c1)C(N)=N2 [Compound 480]
<30%,<30%,32%,,C=CCc1cccc(OC)c1Oc1ccc2c(c1)CN(Cc1cccc(C(=O)N(C)C3CCCCC3)c1)C(N)=N2 [Compound 481]

% Inhibition (FS) (0.3 μM test compound),% Inhibition (FS) (1 μM test compound),% Inhibition (FS) (3 μM test compound),"% Inhibition (FS) (3 μM test compound, 3 µM)",SMILES
<30%,<30%,43%,,CCCc1cccc(C)c1Oc1ccc2c(c1)CN(Cc1cccc(C(=O)N(C)C3CCCCC3)c1)C(N)=N2 [Compound 482]
<30%,<30%,<30%,,CN(C(=O)c1cccc(CN2Cc3cc(Oc4ccccc4C(=O)N4CCCC4)ccc3N=C2N)c1)C1CCCCC1 [Compound 483]
<30%,<30%,<30%,,C[C@@H](CNC(=O)C1CCCCC1)N1Cc2cc(Oc3ccccc3)ccc2N=C1N [Compound 486]
<30%,<30%,<30%,,COc1ccccc1-c1ccc2c(c1)CN(CCNC(=O)C1(C(N)=O)CC1)C(N)=N2 [Compound 488]
<30%,<30%,<30%,,COc1ccccc1-c1ccc2c(c1)CN(CCNC(=O)CN)C(N)=N2 [Compound 490]
<30%,<30%,,44% and <30%,COc1ccccc1-c1ccc2c(c1)CN(CCNC(=O)C1CCN(C(C)=O)CC1)C(N)=N2 [Compound 491]
<30%,<30%,49%,,COc1ccccc1-c1ccc2c(c1)CN(CCNC(=O)CCN)C(N)=N2 [Compound 493]
<30%,<30%,<30%,,COc1ccccc1-c1ccc2c(c1)CN(CCNC(=O)CCCN)C(N)=N2 [Compound 494]
<30%,<30%,90%,,CN(C(=O)c1ccc(CN2Cc3cc(Oc4ccccc4)ccc3N=C2N)s1)C1CCCCC1 [Compound 503]
<30%,31%,96%,,CC1CCCCN1C(=O)CCCC(CCC(=O)N1CCCCC1C)N1Cc2cc(Oc3ccccc3)ccc2N=C1N (stereo not drawn) [Compound 504]
<30%,<30%,41%,,CC(C)(C)OC(=O)N1CCC(CN2Cc3cc(Oc4ccccc4)ccc3N=C2N)CC1 [Compound 509]
<30%,<30%,37%,,CC(C)(C)OC(=O)N1CCCCC(N2Cc3cc(Oc4ccccc4)ccc3N=C2N)C1 (stereo not drawn) [Compound 510]
<30%,<30%,51%,,CN(C(=O)c1cccc(CN2Cc3cc(Oc4ccccc4C4CCCC4)ccc3N=C2N)c1)C1CCCCC1 [Compound 512]
<30%,<30%,<30%,,CN(C(=O)c1cccc(CN2Cc3cc(OCc4ccccc4-c4ccccc4)ccc3N=C2N)c1)C1CCCCC1 [Compound 513]
<30%,<30%,<30%,,COc1cccc(COc2ccc3c(c2)CN(Cc2cccc(C(=O)N(C)C4CCCCC4)c2)C(N)=N3)c1 [Compound 514]
<30%,<30%,<30%,,CCCCCOc1ccc2c(c1)CN(Cc1cccc(C(=O)N(C)C3CCCCC3)c1)C(N)=N2 [Compound 516]
<30%,<30%,<30%,,CC(C)COc1ccc2c(c1)CN(Cc1cccc(C(=O)N(C)C3CCCCC3)c1)C(N)=N2 [Compound 518]
<30%,<30%,<30%,,CC(C)Oc1ccc2c(c1)CN(Cc1cccc(C(=O)N(C)C3CCCCC3)c1)C(N)=N2 [Compound 519]
<30%,<30%,33%,,CN(C(=O)c1cccc(CN2Cc3cc(OC4CCCC4)ccc3N=C2N)c1)C1CCCCC1 [Compound 520]
<30%,<30%,<30%,,CN(C(=O)c1cccc(CN2Cc3cc(OCC4CCCC4)ccc3N=C2N)c1)C1CCCCC1 [Compound 521]
<30%,<30%,58%,,CCCC(CCC)C(=O)N1CCC(N2Cc3cc(Oc4ccccc4)ccc3N=C2N)CC1 [Compound 523]
<30%,<30%,44%,,NC1=Nc2ccc(Oc3ccccc3)cc2CN1C1CCN(C(=O)C23CC4CC(CC(C4)C2)C3)CC1 [Compound 524]
<30%,<30%,70%,,NC1=Nc2ccc(Oc3ccccc3)cc2CN1CC1CCN(C(=O)C2CCCCC2)CC1 [Compound 525]
